From patent US20260157967A1, “METHOD FOR PREPARING MEDICINES, HAVING REDUCED PRODUCTION TIME AND IMPROVED STABILITY” (DR.INB CO., priority 2021, published 2026) come the findings set out here.

The test system of this assay is cancer cells (PANC-1). Briefly: CCK8 assay of the efficiency of killing cancer cells, with or without laser irradiation (FIG. 4). Conditions: PANC-1, FIG. 4a, docetaxel treatment at various concentrations. It is filed as cell-based. How it is done:
1 g of polyvinylpyrrolidone (PVP, Sigma-Aldrich) was dissolved in 20 g of ultrapure water and stirred in a mixing chamber at 1500 RPM for 30 minutes to obtain an aqueous PVP solution. Subsequently, 131.7 mg of potassium hexacyanoferrate (III) trihydrate (K3Fe(CN)6·3H2O, Sigma-Aldrich) was dissolved in 20 g of ultrapure water and mixed with the aqueous PVP solution. Then, 400 μl of 1 M HCl (Sigma-Aldrich) was added to the mixing chamber and vortexed at 60 J/s. After movement through an injection pipe, the solution thus prepared was subjected to a step of allowing gas to flow at a high speed on the inner boundary of a reaction chamber and in a liquid cutting tube at an applied voltage of 30 kV, a distance of 25 cm between the reaction chamber and the end of the injection pipe, and a temperature of 140° C. As indicated by the green arrows in FIG. 1, the gas is moved toward the upper portion of the reaction chamber through a structure in which the boundary of the reaction chamber and the liquid cutting tube are at 0.29 rad and the gap of the boundary is 900 nm. As the gas passed, the prepared solution was cut into small pieces. The cut liquid received heat in the reaction chamber and the temperature thereof rose quickly compared to bulk liquid having the same total volume (40 ml) due to heat transfer within the liquid (FIG. 3). […]

The structures appear in SMILES notation.

For `CC(=O)O[C@@]12CO[C@@H]1C[C@H](O)[C@@]1(C)C(=O)[C@H](O)C3=C(C)[C@@H](OC(=O)[C@H](O)[C@@H](NC(=O)OC(C)(C)C)c4ccccc4)C[C@@](O)([C@@H](OC(=O)c4ccccc4)[C@H]21)C3(C)C` [docetaxel], the “efficiency of killing cancer cells” value was “increased the efficiency of killing cancer cells with an increase in the treatment concentration”.
